Structures can show the parent of a compound that is named as a salt.
What was measured:
[1] = molecular target: rhIDO (recombinant human IDO) (Homo sapiens, UniProt P14902); assay: Enzyme assay using rhIDO (rate of kynurenine production); type: biochemical; settings: 2 h; final concentration of the compound 10 μM; rate relative to reaction without compound; read-out: rhIDO-mediated kynurenine production
Summary of the method: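 Kynurenine formation, expressed as % of uncompounded reaction after background subtraction, was read by absorbance at 490 nm following TCA stop, 50 °C hydrolysis and Ehrlich-type p-dimethylbenzaldehyde staining. Recombinant human IDO with ascorbate/methylene blue/catalase was pre-exposed to compound 10 min, then reacted 120 min at 37 °C after adding 2 mM tryptophan stock.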

[2] = molecular target: rhTDO (recombinant human TDO) (Homo sapiens, UniProt P48775); assay: Enzyme assay using rhTDO (rate of kynurenine production); type: biochemical; settings: 2 h; final concentration of the compound 10 μM; rate relative to reaction without compound; read-out: rhTDO-mediated kynurenine production
Summary of the method: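 Kynurenine output, as percent of untreated control after background subtraction, read at 490 nm with p-dimethylbenzaldehyde following TCA quench and 15 min heating at 50 °C. Reaction: rhTDO with compound, 10 min preincubation then 120 min at 37 °C, started by 20 mM tryptophan stock, in phosphate/ascorbate/methylene blue/catalase.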

[3] = molecular target: T1, IDO in A431 cells (Homo sapiens, UniProt P14902); assay: IDO cell-based assay, kynurenine production in IFN-γ stimulated A431 cells; settings: A-431, 24 h; final concentration of the compound 10 μM; rate relative to culture without compound
T1 construct: endogenous in cells; host or cells: A431 cells, IFN-γ stimulated
Summary of the method: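 Kynurenine output was read by absorbance at 460 nm after p-dimethylbenzaldehyde/trichloroacetic acid reagent, background-corrected, and given as % of untreated wells. Before the read, cells in 178 μM L-tryptophan medium had 1 h compound preincubation, then 24 h IFN-γ stimulation (added as 100 ng/mL dilution).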

[4] = molecular target: T2, TDO in A172 cells (Homo sapiens, UniProt P48775); assay: TDO cell-based assay, kynurenine production in A172 cells; settings: A 172; final concentration of the compound 10 μM; rate relative to culture without compound
T2 construct: endogenous in cells; host or cells: A172 cells
Summary of the method: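 A172 cells were preincubated with compound for 1 h, then given L-tryptophan (final 524 μM) for 24 h at 37 °C. Kynurenine was read at 460 nm after p-dimethylbenzaldehyde/TCA reagent, background-subtracted, and expressed as % of no-compound production.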

Chain of rhIDO (recombinant human IDO) (P14902 whole entry): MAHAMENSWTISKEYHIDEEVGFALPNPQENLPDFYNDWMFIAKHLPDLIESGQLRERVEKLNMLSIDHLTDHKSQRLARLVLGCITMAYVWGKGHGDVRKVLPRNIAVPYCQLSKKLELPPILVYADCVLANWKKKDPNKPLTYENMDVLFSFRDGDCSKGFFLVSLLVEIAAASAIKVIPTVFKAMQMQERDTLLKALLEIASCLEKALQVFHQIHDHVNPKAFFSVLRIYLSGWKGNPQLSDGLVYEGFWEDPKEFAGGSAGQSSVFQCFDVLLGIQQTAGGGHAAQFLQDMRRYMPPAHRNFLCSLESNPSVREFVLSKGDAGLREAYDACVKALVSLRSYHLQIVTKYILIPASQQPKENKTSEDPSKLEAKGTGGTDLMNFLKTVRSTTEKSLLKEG
T1 sequence (P14902 whole entry): as above
T2 sequence (P48775 whole entry): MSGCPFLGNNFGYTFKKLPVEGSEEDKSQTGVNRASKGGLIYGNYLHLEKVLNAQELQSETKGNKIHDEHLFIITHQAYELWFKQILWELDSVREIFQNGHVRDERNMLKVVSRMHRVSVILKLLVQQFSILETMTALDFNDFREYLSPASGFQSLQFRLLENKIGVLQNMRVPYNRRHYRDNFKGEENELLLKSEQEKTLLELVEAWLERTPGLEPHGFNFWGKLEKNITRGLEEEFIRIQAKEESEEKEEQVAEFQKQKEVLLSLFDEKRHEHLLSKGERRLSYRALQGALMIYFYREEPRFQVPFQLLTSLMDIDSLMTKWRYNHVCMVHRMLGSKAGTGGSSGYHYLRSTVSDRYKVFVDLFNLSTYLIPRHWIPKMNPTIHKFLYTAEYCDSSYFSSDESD
Chain of rhTDO (recombinant human TDO) (P48775 whole entry): as above

Compound	remaining activity at 10 µM [1]	remaining activity at 10 µM [2]	remaining activity at 10 µM [3]	remaining activity at 10 µM [4]
Fc1ccc(CSC2=NCN(Cc3ccc(F)c(Cl)c3)CN2)c(CSC2=NCN(Cc3ccc(F)c(Cl)c3)CN2)c1 [Compound 146, 6,6′-(((4-Fluoro-1,2-phenylene)bis(methylene))bis(sulfanediyl))bis(3-(3-chloro-4-fluorobenzyl)-1,2,3,4-tetrahydro-1,3,5-triazine)]	54%	26%	16%	17%
COc1ccc(CCN2CN=C(SCc3ccc(F)cc3CSC3=NCN(CCc4ccc(OC)cc4)CN3)NC2)cc1 [Compound 147, 6,6′-(((4-Fluoro-1,2-phenylene)bis(methylene))bis(sulfanediyl))bis(3-(4-methoxyphenethyl)-1,2,3,4-tetrahydro-1,3,5-triazine)]	32%	10%	16%	16%
COc1ccc(CCN2CN=C(SCc3ccc(Br)cc3CSC3=NCN(CCc4ccc(OC)cc4)CN3)NC2)cc1 [Compound 148, 6,6′-(((4-Bromo-1,2-phenylene)bis(methylene))bis(sulfanediyl))bis(3-(4-methoxyphenethyl)-1,2,3,4-tetrahydro-1,3,5-triazine)]	13%	8%	7%	18%
FC(F)(F)c1cccc(CCN2CN=C(SCc3ccc(Br)cc3CSC3=NCN(CCc4cccc(C(F)(F)F)c4)CN3)NC2)c1 [Compound 149, 6,6′-(((4-Bromo-1,2-phenylene)bis(methylene))bis(sulfanediyl))bis(3-(3-(trifluoromethyl)phenethyl)-1,2,3,4-tetrahydro-1,3,5-triazine)]	8%	11%	7%	17%
Fc1ccc(CSC2=NCN(CCc3cccc(C(F)(F)F)c3)CN2)c(CSC2=NCN(CCc3cccc(C(F)(F)F)c3)CN2)c1 [Compound 150, 6,6′-(((4-Fluoro-1,2-phenylene)bis(methylene))bis(sulfanediyl))bis(3-(3-(trifluoromethyl)phenethyl)-1,2,3,4-tetrahydro-1,3,5-triazine)]	23%	11%	15%	13%
N=C(N)SCc1sc2ccccc2c1CSC(=N)N [Compound 151, Benzo[b]thiophene-2,3-diylbis(methylene) dicarbamimidothioate dihydrobromide]	13%	11%	33%	76%
FC(F)(F)c1cccc(CCN2CN=C(SCc3cc(Cl)c(Cl)cc3CSC3=NCN(CCc4cccc(C(F)(F)F)c4)CN3)NC2)c1 [Compound 152, 6,6′-(((4,5-Dichloro-1,2-phenylene)bis(methylene))bis(sulfanediyl))bis(3-(3-(trifluoromethyl)phenethyl)-1,2,3,4-tetrahydro-1,3,5-triazine)]	7%	7%	9%	6%
COc1cccc(CCN2CN=C(SCc3cc(Cl)c(Cl)cc3CSC3=NCN(CCc4cccc(OC)c4)CN3)NC2)c1 [Compound 153, 6,6′-(((4,5-Dichloro-1,2-phenylene)bis(methylene))bis(sulfanediyl))bis(3-(3-methoxyphenethyl)-1,2,3,4-tetrahydro-1,3,5-triazine)]	8%	6%	12%	9%
